Key:
[1] = test system: HIV-1 Ba-L; assay: HIV-1 MAGI assay, Ba-L (CCR5 / M-tropic); format: cell-based
Description: (§1) Bayesian statistical models were constructed using known CXCR4 and CCR5 active compounds from literature, and these models were used to virtually screen 5 million compounds in the Aldrich Marketplace Select library. The screen yielded 14 compounds of interest that were then tested for their anti-HIV activity for both tropisms in MAGI assay. Two compounds (FIG. 1, compounds 1 and 2) were active against both T and M tropic forms of HIV with IC50 values of ˜20 μM. These initial hits were followed-up by a second round of virtual screening based on similarity and sub-structure searching. Another 24 compounds were purchased from the same database and tested. […] This compound was then subjected to a series of biological evaluations to determine activity profile and confirm mechanism of action.

[2] = test system: MAGI
[3] = test system: HIV-1 IIIB; assay: HIV-1 MAGI assay, IIIB (CXCR4 / T-tropic); format: cell-based
Description: as §1

[4] = target: T1, CCR5 (Homo sapiens, UniProt P51681); assay: 125I-MIP-1β displacement radio-ligand competition assay; format: binding
T1 construct: expressed in transfected cells; host or cells: HeLa-C14

[5] = target: T1, CCR5; assay: HeLa-C14:JRFL CD4-dependent cell-cell fusion assay; format: cell-based
From the text: Cell-cell fusion assays measure specifically co-receptor mediated inhibition of gp120-induced fusion in the absence of other viral machinery, and these assays were used to explore the CCR5- and CXCR4-specific antiviral activity. A cell-cell fusion assay was constructed to simulate HIV-1 entry in the absence of other viral machinery. The assay measured fusion of effector cells expressing the JRFL envelope (CCR5-tropic/CD4 dependent) with HeLa-C14 target cells (expressing CD4, CCR5, and CXCR4) using a luciferase readout (FIG. 5A).

[6] = test system: HIV-2 strain that utilized CXCR4 for entry; assay: PBMC HIV-2 inhibition assay; format: cell-based
From the text: Compounds 4 inhibited this HIV-2 strain in PBMC cells in support of the CXCR4-based viral entry inhibition mechanism.

[7] = test system: HIV-1 IIIB; assay: PBMC anti-HIV-1 assay, IIIB (CXCR4); format: cell-based; details: Human immunodeficiency virus 1, IIIB, read-out: PBMC - HIV-1HIB (CXCR4) IC50
[8] = PBMC toxicity; format: cell-based; details: read-out: PBMC - Toxicity TC50
[9] = test system: HIV-1 Ba-L; assay: PBMC anti-HIV-1 assay, Ba-L (CCR5); format: cell-based; details: Human immunodeficiency virus 1, BAL
[10] = target: HIV-1 reverse transcriptase (Human immunodeficiency virus type 1 group M subtype B, UniProt P03366); assay: biochemical; format: biochemical
[11] = test system: VSV-G pseudovirus; assay: microbe, parasite or virus in culture; format: cell-based
[12] = MAGI toxicity; details: human, MAGI cells
[13] = test system: wild type virus; assay: organism not typed; format: cell-based; details: read-out: Multi-cycle EC50 (WT)
[14] = in vitro; format: cell-based; details: human

T1 sequence (P51681 whole entry): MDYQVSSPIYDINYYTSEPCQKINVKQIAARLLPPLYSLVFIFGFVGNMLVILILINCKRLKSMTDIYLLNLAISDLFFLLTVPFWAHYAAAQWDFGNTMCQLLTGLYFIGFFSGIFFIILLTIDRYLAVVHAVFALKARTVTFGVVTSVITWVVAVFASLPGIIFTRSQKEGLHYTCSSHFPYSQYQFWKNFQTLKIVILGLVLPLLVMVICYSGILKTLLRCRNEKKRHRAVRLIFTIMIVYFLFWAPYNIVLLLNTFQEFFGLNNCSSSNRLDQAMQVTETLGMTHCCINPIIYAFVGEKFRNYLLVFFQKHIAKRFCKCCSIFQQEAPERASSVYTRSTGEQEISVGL

Molecule: 4-((4-(4-benzyl-5-methyl-1H-pyrazol-3-yl)piperidin-1-yl)methyl)-3-chloropyridine
- IC50 ([1]; table of synthesized compounds, read-out: R5-IC50): 4.2 µM
- CC50 [2]: 164 µM
- IC50 ([3]; table of synthesized compounds, read-out: X4-IC50): 3.1 µM

Molecule: c1ccc(Cc2cn[nH]c2C2CCN(Cc3ccncc3)CC2)cc1 [Compound 4, 4-((4-(4-benzyl-1H-pyrazol-3-yl)piperidin-1-yl)methyl)pyridine]
- IC50 ([1]; Ba-L, M-tropic, read-out: HIV-1 MAGI IC50 Ba-L): 17 µM
- IC50 ([1]; Human immunodeficiency virus 1, BAL, MAGI, value stated for both tropisms, read-out: IC50 against M tropic HIV in MAGI assay): 0.8 to 3.8 µM
- IC50 ([1]; Human immunodeficiency virus 1, BAL, Table 3, read-out: MAGI Assay IC50 CCR5): 3.8 µM
- IC50 ([1]; Human immunodeficiency virus 1, BAL, read-out: MAGI - HIV-1Ba-L (CCR5) IC50): 3.8 µM
- IC50 ([1]; Human immunodeficiency virus 1, BAL, table of synthesized compounds, read-out: R5-IC50): 3.75 µM
- IC50 ([3]; Human immunodeficiency virus 1, IIIB, MAGI, Table 3, read-out: MAGI Assay IC50 CXCR4): 0.8 µM
- IC50 ([3]; Human immunodeficiency virus 1, IIIB, MAGI, read-out: MAGI - HIV-1HIB (CXCR4) IC50): 0.8 µM
- IC50 ([3]; Human immunodeficiency virus 1, IIIB, MAGI, table of synthesized compounds, read-out: X4-IC50): 0.78 µM
- IC50 ([3]; Human immunodeficiency virus 1, IIIB, MAGI, value stated for both tropisms, read-out: IC50 against T tropic HIV in MAGI assay): 0.8 to 3.8 µM
- IC50 ([3]; IIIB, T-tropic, read-out: HIV-1 MAGI IC50 IIIB): 25 µM
- 125I-MIP-1β Displacement ([4]; at 100 μM): 38% at 100 μM/
- 125I-MIP-1β Displacement ([4]; at 1 mM): 88% at 1 mM
- displacement of 125I-MIP1β chemokine ligand from the receptor ([4]; in words): displaced
- IC50 [5]: 36 µM
- inhibition of JRFL envelope / HeLa-C14 cell-cell fusion ([5]; luciferase readout, in words): inhibited fusion
- IC50 ([6]; Human immunodeficiency virus 2, PBMC): 31 µM
- inhibition of HIV-2 strain in PBMC cells ([6]; in words): inhibited
- IC50 [7]: 2.3 µM
- CC50 [8]: > 100 µM
- IC50 [9]: 2.3 µM
- inhibition of isolated HIV-1 reverse transcriptase ([10]; in words): inhibited
- IC50 ([10]; read-out: Isolated HIV-RT Inhibition IC50): 9 µM
- EC50 ([11]; Pseudovirus): 1.3 µM
- inhibition of VSV-G pseudovirus ([11]; in words): inhibited
- CC50 ([12]; MAGI -Toxicity TC50): > 300 µM
- CC50 ([12]; TC50, table of synthesized compounds): > 100 µM
- EC50 [13]: 0.9 µM
- CC50 [14]: > 200 µM

From patent US10450293B2, “Chemokine CXCR4 and CCR5 receptor modulators and uses related thereto” (Emory University, priority 2014, dated 2019)
